Source: US20250129095A1, “ANNULATED 2-AMINO-3-CYANO THIOPHENES AND DERIVATIVES FOR THE TREATMENT OF CANCER” (Boehringer Ingelheim Int'l GmbH Corp., priority 2021, published 2025)

What was measured:
KRAS (WT)::SOS1 = target: T1, KRAS (WT)::SOS1 (Homo sapiens, UniProt P01116, C118S); experiment: KRAS::SOS1 AlphaScreen binding assay, KRAS WT
T1 construct: KRAS (WT) 1-169, N-terminal 6His-tag for purification, cleaved off; 6His-tag (N, cleaved yes); TEV cleavage site; made in house
Excerpt: (§1) This assay can be used to examine the potency with which compounds according to the invention binding to (mutated) KRAS inhibit the protein-protein interaction between SOS1 and (mutated) KRAS e.g., KRAS WT, KRAS G12C, KRAS G12D, KRAS G12V, KRAS G13D. […] Low IC50 values in this assay setting are indicative of strong inhibition of protein-protein interaction between SOS1 and KRAS:
(§2) These assays measure the inhibitory effect of compounds on KRAS mutant protein-protein interactions using the Alpha Screen technology by Perkin Elmer
(§3) The following (mutant) enzyme forms of KRAS and interacting proteins are used in these assays at the given concentrations: • KRAS (G12D) 1-169, N-terminal 6His-tag, C-terminal avi-tag (Xtal BioStructures, Inc.); final assay concentration 10 nM and SOS1 564-1049, N-terminal 229 GST-tag, TEV cleavage site (Viva Biotech Ltd); final assay concentration 5 nM; • KRAS (G12C) 1-169, N-terminal 6His-tag for purification, cleaved off, C-terminal avi-tag, biotinylated, mutations: C51S, C80L, C118S (in house); final assay concentration 7.5 nM and SOS1 564-1049, N-terminal 229 GST-tag, TEV cleavage site (Viva Biotech Ltd); final assay concentration 5 nM; • KRAS (G12V) 1-169, N-terminal 6His-tag for purification, cleaved off, C-terminal avi-tag, biotinylated, TEV cleavage site, mutation: C118S, GDP loaded (in house); final assay concentration 10 nM and SOS1 564-1049, N-terminal 229 GST-tag, TEV cleavage site (Viva Biotech Ltd); final assay concentration 10 nM; • KRAS (G13D) 1-169, N-terminal 6His-tag for purification, cleaved off, C-terminal avi-tag, biotinylated, TEV cleavage site, mutation: C118S, GDP loaded (in house); final assay concentration 10 nM and SOS1 564-1049, N-terminal 229 GST-tag, TEV cleavage site (Viva Biotech Ltd); final assay concentration 10 nM; • KRAS (WT) 1-169, N-terminal 6His-tag for purification, cleaved off, C-terminal avi-tag, biotinylated, TEV cleavage site, mutation: C118S, GDP loaded (in house); final assay concentration 10 nM and SOS1 564-1049, N-terminal 229 GST-tag, TEV cleavage site (Viva Biotech Ltd); final assay concentration 10 nM.
(§4) Test compounds dissolved in DMSO are dispensed onto assay plates (Proxiplate 384 PLUS, white, PerkinElmer; 6008289) using an Access Labcyte Workstation with the Labcyte Echo 55×. For the chosen highest assay concentration of 100 μM, 150 nL of compound solution are transferred from a 10 mM DMSO compound stock solution. A series of eleven fivefold dilutions per compound are transferred to the assay plate, compound dilutions are tested in duplicates. DMSO are added as backfill to a total volume of 150 nL.
(§5) The assays run on a fully automated robotic system in a darkened room below 100 Lux. To 150 nl of compound dilution 10 μl of a mix including KRAS mutant protein, SOS1 (final assay concentrations see above) and GDP nucleotide (Sigma G7127; final assay concentration 10 μM) in assay buffer (1×PBS, 0.1% BSA, 0.05% Tween 20) are added into columns 1-24.
(§6) After 30 minutes incubation time 5 μl of Alpha Screen bead mix in assay buffer are added into columns 1-23. Bead mix consists of AlphaLISA Glutathione Acceptor Beads (PerkinElmer, Cat No AL109) and AlphaScreen Streptavidin Donor Beads (PerkinElmer Cat No 6760002) in assay buffer at a final assay concentration of 10 μg/ml each.
(§7) Plates are kept at room temperature in a darkened incubator. After an additional 60 minutes incubation time the signal is measured in a PerkinElmer Envision HTS Multilabel Reader using the AlphaScreen specs from PerkinElmer.
(§8) Each plate contains up to 16 wells of a negative control depending on the dilution procedure (platewise or serial) (DMSO instead of test compound; with KRAS mutant::SOS1 GDP mix and bead mix; column 23) and 16wells of a positive control (DMSO instead of test compound; with KRAS mutant::SOS1 GDP mix w/o bead mix; column 24).
(§9) As internal control known inhibitors of KRAS mutant::SOS1 interaction can be measured on each compound plate. […]

KRAS (G12V)::SOS1 = target: T2, KRAS (G12V)::SOS1 (Homo sapiens, UniProt P01116, C118S/G12V); experiment: KRAS::SOS1 AlphaScreen binding assay, KRAS G12V
T2 construct: KRAS (G12V) 1-169, N-terminal 6His-tag for purification, cleaved off; 6His-tag (N, cleaved yes); TEV cleavage site; made in house
Excerpt: as §1, §2, §3, §4, §5, §6, §7, §8, §9

LOVO cells = experiment: LOVO CTG proliferation assay (120 h) (CRC, G13D); type: cell-based; conditions: Homo sapiens
Experimental: LOVO cells (ATCC CCL-229) are dispensed into 384-well plates, flat and clear bottom (Greiner, PNr. 781091) at a density of 1000 cells per well in 60 μL DMEM (Sigma D6429)+10% Fetal Calf Serum (HyClone, PNr.: SH30084.03) and incubated at 37° C. in a CO2 incubator overnight. The next day, compounds (10 mM stock in DMSO) are added with the ECHO acoustic liquid handler system (Beckman Coulter), including DMSO controls. Plates are incubated for 120 h, and cell viability is measured using CellTiter-Glo luminescent cell viability reagent (Promega product code G7570). Viability (stated as percent of control) is defined as relative luminescence units RLU of each well divided by the RLU of cells in DMS0 controls. IC50 values are determined from viability measurements by non-linear regression using a four-parameter model.

CYP3A4 = target: T3, CYP3A4 (Homo sapiens, UniProt P08684); experiment: Mechanism based inhibition of CYP3A4 assay (MBI 3A4); type: in vitro ADME; conditions: human liver microsomes, 25 uM, hydroxy-midazolam formation 30 min vs 0 min preincubation
T3 construct: from tissue; host or cells: human liver microsomes
Experimental: The time dependent inhibition towards CYP3A4 is assayed in human liver microsomes (0.02 mg/mL) with midazolam (15 μM) as a substrate. The test compounds and water control (wells w/o test compound) are preincubated in presence of NADPH (1 mM) with human liver microsomes (0.2 mg/mL) at a concentration of 25 uM for 0 min and 30 min. After preincubation, the incubate is diluted 1:10 and the substrate midazolam is added for the main incubation (15 min). The main incubation is quenched with acetonitrile and the formation of hydroxy-midazolam is quantified via LC/MS-MS. The formation of hydroxy-midazolam from the 30 min preincubation relative to the formation from the 0 min preincubation is used as a readout. Values of less than 100% mean that the substrate midazolam is metabolized to a lower extent upon 30 min preincubation compared to 0 min preincubation. In general low effects upon 30 min preincubation are desired (corresponding to values close to 100%/not different to the values determined with water control).

T1 sequence (P01116 1-169 isoform P01116-2 C118S): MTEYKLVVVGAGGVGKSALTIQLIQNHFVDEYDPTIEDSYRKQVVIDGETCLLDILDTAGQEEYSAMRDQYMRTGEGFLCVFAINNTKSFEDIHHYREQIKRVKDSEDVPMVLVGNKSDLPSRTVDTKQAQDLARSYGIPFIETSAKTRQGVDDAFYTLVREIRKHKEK
T2 sequence (P01116 1-169 isoform P01116-2 G12V/C118S): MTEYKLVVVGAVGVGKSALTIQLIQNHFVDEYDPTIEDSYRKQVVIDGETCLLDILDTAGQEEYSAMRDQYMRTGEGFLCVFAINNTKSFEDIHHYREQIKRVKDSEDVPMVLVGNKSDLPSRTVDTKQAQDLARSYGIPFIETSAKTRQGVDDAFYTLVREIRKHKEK
T3 sequence (P08684 whole entry): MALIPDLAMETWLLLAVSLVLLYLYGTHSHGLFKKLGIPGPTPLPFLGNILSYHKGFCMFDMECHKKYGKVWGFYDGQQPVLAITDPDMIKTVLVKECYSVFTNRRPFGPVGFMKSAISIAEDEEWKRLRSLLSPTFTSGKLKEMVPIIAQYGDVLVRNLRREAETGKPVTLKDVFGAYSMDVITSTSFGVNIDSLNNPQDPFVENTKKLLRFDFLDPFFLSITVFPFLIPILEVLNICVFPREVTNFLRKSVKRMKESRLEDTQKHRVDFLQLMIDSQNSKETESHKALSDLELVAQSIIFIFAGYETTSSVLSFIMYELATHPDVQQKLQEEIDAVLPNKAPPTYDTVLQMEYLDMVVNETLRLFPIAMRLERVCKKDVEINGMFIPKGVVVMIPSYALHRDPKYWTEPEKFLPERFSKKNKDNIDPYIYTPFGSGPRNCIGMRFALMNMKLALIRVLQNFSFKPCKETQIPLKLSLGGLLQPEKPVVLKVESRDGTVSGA

Structure (SMILES)	IC50 (KRAS (WT)::SOS1) [nM]	IC50 (KRAS (G12V)::SOS1) [nM]	IC50 (LOVO cells) [nM]	MBI 3A4 [%] (CYP3A4)
C[C@H](Oc1cc(O[C@@H]2CNC2(C)C)nc(-c2noc3c2CCC[C@@]32CCCc3sc(N)c(C#N)c32)n1)[C@@H]1C[C@@H](F)CN1C [II-31]	2	2	202	
C[C@H](Oc1cc(O[C@@H]2CNC[C@@H]2F)nc(-c2noc3c2CCC[C@@]32CCCc3sc(N)c(C#N)c32)n1)[C@@H]1CCCN1C [II-29]	4	2	216	
C[C@H](Oc1cc(N[C@H]2CCOC2)nc(-c2onc3c2CCC[C@@]32CCCc3sc(N)c(C#N)c32)n1)[C@@H]1CCCN1C [Example I-4]			575	
C[C@H](Oc1cc(N(C)CCN(C)C)nc(-c2noc3c2CCC[C@@]32CCCc3sc(N)c(C#N)c32)n1)[C@@H]1CCCN1C [II-20]			139	
C[C@H](Oc1cc(Nc2ccncn2)nc(-c2noc3c2CCC[C@@]32CCCc3sc(N)c(C#N)c32)n1)[C@@H]1CCCN1C [II-15]			708	64
COC[C@H](C)Nc1cc(O[C@@H](C)[C@@H]2CCCN2C)nc(-c2onc3c2CCC[C@@]32CCCc3sc(N)c(C#N)c32)n1 [Example I-5]				61
C[C@H](Oc1cc(Oc2cncnc2)nc(-c2onc3c2CCC[C@@]32CCCc3sc(N)c(C#N)c32)n1)[C@@H]1CCCN1C [Example I-3]	2		35	
C[C@H](Oc1cc(N(C)C)nc(-c2noc3c2CCC[C@@]32CCCc3sc(N)c(C#N)c32)n1)[C@@H]1CCCN1C [II-10]			4080	
CO[C@@H]1C[C@@H]([C@H](C)Oc2cc(O[C@@H]3CNC3(C)C)nc(-c3noc4c3CCC[C@@]43CCCc4sc(N)c(C#N)c43)n2)N(C)C1 [II-30]	2	2	130	
C[C@H](Oc1cc(Oc2ccon2)nc(-c2noc3c2CCC[C@@]32CCCc3sc(N)c(C#N)c32)n1)[C@@H]1CCCN1C [II-3]			102	
C[C@H](Oc1cc(O[C@H]2CNC(C)(C)C2)nc(-c2noc3c2CCC[C@@]32CCCc3sc(N)c(C#N)c32)n1)[C@@H]1CCCN1C (single isomer, unassigned) [II-8]		10	501	
C[C@H](Oc1cc(OCC2(N(C)C)COC2)nc(-c2onc3c2CCC[C@@]32CCCc3sc(N)c(C#N)c32)n1)[C@@H]1CCCN1C [Example I-8]		3	27	77
C[C@H](Oc1cc(Oc2cncnc2)nc(-c2noc3c2CCC[C@@]32CCCc3sc(N)c(C#N)c32)n1)[C@@H]1CCCN1C [II-1]	3		433	
C[C@H](Oc1cc(Oc2nccs2)nc(-c2noc3c2CCC[C@@]32CCCc3sc(N)c(C#N)c32)n1)[C@@H]1CCCN1C [II-2]			53	40
C[C@H](Oc1cc(O[C@H]2CN(C)C(C)(C)C2)nc(-c2noc3c2CCC[C@@]32CCCc3sc(N)c(C#N)c32)n1)[C@@H]1CCCN1C [II-19]			344	
C[C@H](Oc1cc(Oc2cnccn2)nc(-c2noc3c2CCC[C@@]32CCCc3sc(N)c(C#N)c32)n1)[C@@H]1CCCN1C [II-7]			15	
C[C@H](Oc1cc(Oc2nccs2)nc(-c2onc3c2CCC[C@@]32CCCc3sc(N)c(C#N)c32)n1)[C@@H]1CCCN1C [Example I-1]	4	2	54	
C[C@H](Oc1cc(OCCO)nc(-c2noc3c2CCC[C@@]32CCCc3sc(N)c(C#N)c32)n1)[C@@H]1CCCN1C [II-6]			781	61
COCCOc1cc(O[C@@H](C)[C@@H]2CCCN2C)nc(-c2noc3c2CCC[C@@]32CCCc3sc(N)c(C#N)c32)n1 [II-5]			117	69
C[C@H](Oc1cc(Nc2nccs2)nc(-c2noc3c2CCC[C@@]32CCCc3sc(N)c(C#N)c32)n1)[C@@H]1CCCN1C [II-12]			1130	
C[C@H]1CN(C)CCCN1c1cc(O[C@@H]2CNC2(C)C)nc(-c2noc3c2CCC[C@@]32CCCc3sc(N)c(C#N)c32)n1 [II-28]	10		3380	65
C[C@H](Oc1cc(Nc2ccccn2)nc(-c2noc3c2CCC[C@@]32CCCc3sc(N)c(C#N)c32)n1)[C@@H]1CCCN1C [II-16]				48
C[C@H](Oc1cc(O[C@H]2CCOC2)nc(-c2noc3c2CCC[C@@]32CCCc3sc(N)c(C#N)c32)n1)[C@@H]1CCCN1C [II-4]			93	58
C[C@H](Oc1cc(Nc2cccnn2)nc(-c2noc3c2CCC[C@@]32CCCc3sc(N)c(C#N)c32)n1)[C@@H]1CCCN1C [II-18]			1120	64
C[C@H](Oc1cc(OCC2(N(C)C)CC2)nc(-c2noc3c2CCC[C@@]32CCCc3sc(N)c(C#N)c32)n1)[C@@H]1CCCN1C [II-21]			186	76
C[C@H](Oc1cc(Oc2cccnc2)nc(-c2onc3c2CCC[C@@]32CCCc3sc(N)c(C#N)c32)n1)[C@@H]1CCCN1C [Example I-2]	4	1	32	
C[C@H](Oc1cc(Sc2ncccn2)nc(-c2onc3c2CCC[C@@]32CCCc3sc(N)c(C#N)c32)n1)[C@@H]1CCCN1C [Example I-7]			3240	
C[C@H](Oc1cc(Nc2ccccn2)nc(-c2onc3c2CCC[C@@]32CCCc3sc(N)c(C#N)c32)n1)[C@@H]1CCCN1C [Example I-6]			595	
C[C@H](Oc1cc(NCC2COC2)nc(-c2noc3c2CCC[C@@]32CCCc3sc(N)c(C#N)c32)n1)[C@@H]1CCCN1C [II-11]			568	
